Assay [1] has as its target T1, MAGL (Mus musculus, UniProt O35678).
T1 sequence (O35678 1-303): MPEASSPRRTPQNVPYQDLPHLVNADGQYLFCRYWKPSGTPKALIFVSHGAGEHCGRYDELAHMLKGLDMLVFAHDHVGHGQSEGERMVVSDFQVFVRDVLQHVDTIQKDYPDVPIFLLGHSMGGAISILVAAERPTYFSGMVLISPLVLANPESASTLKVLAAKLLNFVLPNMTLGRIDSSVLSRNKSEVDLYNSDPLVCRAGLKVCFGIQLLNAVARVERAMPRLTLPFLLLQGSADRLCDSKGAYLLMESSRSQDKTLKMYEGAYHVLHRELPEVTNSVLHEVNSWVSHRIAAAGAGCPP
As to the kind of experiment: In vitro competitive activity-based protein profiling (Table 2, % inhibition at 1 μM). It is filed as biochemical. The conditions noted are these: read-out: % Inhibition at 1 μM MAGL. Here is the method:
After 30 min, FP—Rh (1.0 μL, 50 μM in DMSO) was added and the mixture was incubated for another 30 min at 37° C. Reactions were quenched with SDS loading buffer (50 μL-4×) and run on SDS-PAGE.
Cell lysates were diluted with mock proteomes for use in competitive ABPP experiments.

The target in assay [2] is T2, FAAH (Mus musculus, UniProt O08914).
T2 sequence (O08914 1-579): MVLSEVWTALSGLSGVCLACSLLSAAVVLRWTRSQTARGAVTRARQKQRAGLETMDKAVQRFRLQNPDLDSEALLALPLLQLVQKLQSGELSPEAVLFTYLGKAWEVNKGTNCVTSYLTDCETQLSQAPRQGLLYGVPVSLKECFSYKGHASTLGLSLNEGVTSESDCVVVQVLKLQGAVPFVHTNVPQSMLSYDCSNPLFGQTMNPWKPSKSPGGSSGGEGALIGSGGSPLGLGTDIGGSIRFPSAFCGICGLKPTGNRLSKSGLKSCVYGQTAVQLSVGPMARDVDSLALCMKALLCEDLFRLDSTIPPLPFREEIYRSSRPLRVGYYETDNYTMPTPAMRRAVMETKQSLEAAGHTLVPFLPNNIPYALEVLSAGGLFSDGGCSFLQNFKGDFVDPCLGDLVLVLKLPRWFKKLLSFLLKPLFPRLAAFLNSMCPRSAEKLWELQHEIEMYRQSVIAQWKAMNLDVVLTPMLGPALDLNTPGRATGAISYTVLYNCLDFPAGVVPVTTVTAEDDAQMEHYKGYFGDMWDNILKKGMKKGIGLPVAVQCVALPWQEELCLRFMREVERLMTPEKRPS
As to the kind of experiment: biochemical. To be noted: in vitro competitive ABPP.

The target in assay [3] is T1, MAGL. As to the kind of experiment: biochemical. The conditions noted are these: mouse; in vitro competitive ABPP; read-out: Mouse (IC50 value, nM) MAGL.
The target in assay [4] is T2, FAAH. As to the kind of experiment: In vitro competitive activity-based protein profiling (Table 2, % inhibition at 1 μM). It is filed as biochemical. To be noted: read-out: % Inhibition at 1 μM FAAH.
The target in assay [5] is T3, ABHD6 (Mus musculus, UniProt Q8R2Y0).
T3 sequence (Q8R2Y0 1-336): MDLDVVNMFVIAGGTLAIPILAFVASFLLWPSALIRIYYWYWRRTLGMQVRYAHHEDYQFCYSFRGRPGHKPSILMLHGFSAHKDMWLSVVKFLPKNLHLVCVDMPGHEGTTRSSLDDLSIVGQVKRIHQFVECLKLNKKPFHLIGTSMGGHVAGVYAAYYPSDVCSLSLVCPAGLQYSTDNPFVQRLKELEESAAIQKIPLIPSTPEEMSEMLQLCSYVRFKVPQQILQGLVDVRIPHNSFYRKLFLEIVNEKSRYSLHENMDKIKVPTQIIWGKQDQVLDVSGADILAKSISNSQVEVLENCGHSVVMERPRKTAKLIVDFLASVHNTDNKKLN
The assay is described as above. The class given is biochemical. To be noted: read-out: % Inhibition at 1 μM ABHD6.

In assay [6] the target is T3, ABHD6. As to the kind of experiment: biochemical. To be noted: in vitro competitive ABPP.

As to `O=C(OC(C(F)(F)F)C(F)(F)F)N1CC2CN(Cc3ccc(F)cc3N3CCCC3)CC2C1` (stereo not drawn) [Example 15, 1,1,1,3,3,3-Hexafluoropropan-2-yl 5-[[4-fluoro-2-(pyrrolidin-1-yl)phenyl]methyl]-octahydropyrrolo[3,4-c]pyrrole-2-carboxylate], the inhibition (as a rule, the percentage by which the read-out fell short of the control) at 1 µM on MAGL [1] is above 75%; at FAAH [4] it was 25 to 75%; on ABHD6 [5], below 25%. Also, the IC50 – broadly, the concentration at which inhibition is half-maximal – at FAAH [2] lay in the range of 1000 to 10000 nM; at MAGL [3] it was 100 to 1000 nM; at ABHD6 [6], 1000 to 10000 nM.
For the molecule `CC(C)c1ccc(CN2CC3CN(C(=O)OC(C(F)(F)F)C(F)(F)F)CC3C2)c(N2CCOCC2)c1` (stereo not drawn) [Example 22, 1,1,1,3,3,3-Hexafluoropropan-2-yl 5-[[2-(morpholin-4-yl)-4-(propan-2-yl)phenyl]methyl]-octahydropyrrolo[3,4-c]pyrrole-2-carboxylate], the results for the inhibition at 1 µM on MAGL [1], at FAAH [4] and at ABHD6 [5] were above 75%, below 25% and below 25%, respectively. Further, the half-inhibitory concentration (IC50) at FAAH [2] is 1000 to 10000 nM; on MAGL [3], 100 to 1000 nM; at ABHD6 [6], 1000 to 10000 nM.
For the molecule `O=C(ON1C(=O)CCC1=O)N1CC2CN(Cc3cccc(Cl)c3N3CCC(F)CC3)CC2C1` (stereo not drawn) [Example 160, 2,5-dioxopyrrolidin-1-yl 5-[[3-chloro-2-(4-fluoropiperidin-1-yl)phenyl]methyl]-octahydropyrrolo[3,4-c]pyrrole-2-carboxylate], the inhibition at 1 µM at MAGL [1] was above 75%; on FAAH [4], 25 to 75%; on ABHD6 [5] it was 25 to 75%. Besides, the IC50 lay within 1000 to 10000 nM on FAAH [2], 100 to 1000 nM at MAGL [3] and 1000 to 10000 nM at ABHD6 [6].
With `O=C(OC(C(F)(F)F)C(F)(F)F)N1CC2CN(Cc3ccc(Cl)cc3N3CCn4ncnc4C3)CC2C1` (stereo not drawn) [Example 34, 1,1,1,3,3,3-Hexafluoropropan-2-yl 5-(4-chloro-2-(5,6-dihydro-[1,2,4]triazolo[1,5-a]pyrazin-7(8H)-yl)benzyl)-hexahydropyrrolo[3,4-c]pyrrole-2(1H)-carboxylate], the figures for the inhibition at 1 µM on MAGL [1], on FAAH [4] and on ABHD6 [5] were above 75%, 25 to 75% and 25 to 75%, respectively. Besides, the IC50 is 1000 to 10000 nM at FAAH [2], below 100 nM at MAGL [3] and 100 to 1000 nM at ABHD6 [6].
`CC(=O)N1CCN(c2ccc(CN3CC4CN(C(=O)OC(C(F)(F)F)C(F)(F)F)CC4C3)c(Cl)c2)CC1` (stereo not drawn) [Example 28, 1,1,1,3,3,3-Hexafluoropropan-2-yl 5-[[4-(4-acetylpiperazin-1-yl)-2-chlorophenyl]methyl]-octahydropyrrolo[3,4-c]pyrrole-2-carboxylate]: the values for the inhibition at 1 µM on MAGL [1], at FAAH [4] and at ABHD6 [5] were above 75%, 25 to 75% and below 25%, respectively. In addition, the IC50 at FAAH [2] is 100 to 1000 nM; on MAGL [3], below 100 nM; at ABHD6 [6] it was 1000 to 10000 nM.
Turning to `CC(=O)N1CCN(c2ccc(CN3CC4CN(C(=O)OC(C(F)(F)F)C(F)(F)F)CC4C3)c(F)c2)CC1` (stereo not drawn) [Example 26, 1,1,1,3,3,3-Hexafluoropropan-2-yl 5-[[4-(4-acetylpiperazin-1-yl)-2-fluorophenyl]methyl]-octahydropyrrolo[3,4-c]pyrrole-2-carboxylate], the inhibition at 1 µM on MAGL [1] is above 75%; at FAAH [4], below 25%; at ABHD6 [5] it was 25 to 75%. Further, the IC50 at FAAH [2] fell in the range of 1000 to 10000 nM; at MAGL [3], 100 to 1000 nM; on ABHD6 [6] it was 1000 to 10000 nM.
In the case of `CC1COCCN1c1ccc(CN2CC3CN(C(=O)ON4C(=O)CCC4=O)CC3C2)c(Cl)c1` (stereo not drawn) [Example 102, 2,5-Dioxopyrrolidin-1-yl 5-[[2-chloro-4-(3-methylmorpholin-4-yl)phenyl]methyl]-octahydropyrrolo[3,4-c]pyrrole-2-carboxylate], the results for the inhibition at 1 µM at MAGL [1], on FAAH [4] and on ABHD6 [5] were 25 to 75%, 25 to 75% and below 25%, respectively. Further, the IC50 on FAAH [2] is 1000 to 10000 nM; on MAGL [3], 100 to 1000 nM; at ABHD6 [6], 1000 to 10000 nM.
Regarding `CC1COCCN1c1cc(F)ccc1CN1CC2CN(C(=O)OC(C(F)(F)F)C(F)(F)F)CC2C1` (stereo not drawn) [Example 16, 1,1,1,3,3,3-Hexafluoropropan-2-yl 5-[[4-fluoro-2-(3-methylmorpholin-4-yl)phenyl]methyl]-octahydropyrrolo[3,4-c]pyrrole-2-carboxylate], the figures for the inhibition at 1 µM on MAGL [1], on FAAH [4] and at ABHD6 [5] were above 75%, below 25% and below 25%, respectively. Also, the IC50 at FAAH [2] was 1000 to 10000 nM; on MAGL [3], below 100 nM; at ABHD6 [6] it was 1000 to 10000 nM.
As to `CCn1cc(CN2CC3CN(C(=O)OC(C(F)(F)F)C(F)(F)F)CC3C2)c(-c2ccncc2)n1` (stereo not drawn) [Example 72, 1,1,1,3,3,3-Hexafluoropropan-2-yl 5-[[1-ethyl-3-(pyridin-4-yl)-1H-pyrazol-4-yl]methyl]-octahydropyrrolo[3,4-c]pyrrole-2-carboxylate], the values for the inhibition at 1 µM at MAGL [1], at FAAH [4] and at ABHD6 [5] were above 75%, below 25% and 25 to 75%, respectively. Also, the IC50 at FAAH [2] is 1000 to 10000 nM; on MAGL [3], below 100 nM; on ABHD6 [6] it was 1000 to 10000 nM.
`CC(C)(C)c1cc(CN2CC3CN(C(=O)OC(C(F)(F)F)C(F)(F)F)CC3C2)n(C2CCOCC2)n1` (stereo not drawn) [Example 157, 1,1,1,3,3,3-hexafluoropropan-2-yl 5-[[3-tert-butyl-1-(oxan-4-yl)-1H-pyrazol-5-yl]methyl]-octahydropyrrolo[3,4-c]pyrrole-2-carboxylate]: the inhibition at 1 µM is above 75% at MAGL [1], below 25% on FAAH [4] and below 25% on ABHD6 [5]. The IC50 on FAAH [2] is above 10000 nM; at MAGL [3], 100 to 1000 nM; on ABHD6 [6], 1000 to 10000 nM.
Turning to `CC1COCCN1c1ccc(CN2CC3CN(C(=O)OC(C(F)(F)F)C(F)(F)F)CC3C2)c(F)c1` (stereo not drawn) [Example 25, 1,1,1,3,3,3-Hexafluoropropan-2-yl 5-[[2-fluoro-4-(3-methylmorpholin-4-yl)phenyl]methyl]-octahydropyrrolo[3,4-c]pyrrole-2-carboxylate], the values for the inhibition at 1 µM at MAGL [1], at FAAH [4] and at ABHD6 [5] were above 75%, 25 to 75% and 25 to 75%, respectively. Moreover, the IC50 at FAAH [2] was 1000 to 10000 nM; at MAGL [3] it was below 100 nM; at ABHD6 [6] it was 1000 to 10000 nM.
In the case of `O=C(OC(C(F)(F)F)C(F)(F)F)N1CC2CN(Cc3cc(CN4CCCCC4)ccc3OC(F)(F)F)CC2C1` (stereo not drawn) [Example 189, 1,1,1,3,3,3-hexafluoropropan-2-yl 5-(5-(piperidin-1-ylmethyl)-2-(trifluoromethoxy)benzyl)hexahydropyrrolo[3,4-c]pyrrole-2(1H)-carboxylate], the inhibition at 1 µM at MAGL [1] was above 75%; on FAAH [4], below 25%; at ABHD6 [5], below 25%. Further, the half-inhibitory concentration (IC50) was in the range of 1000 to 10000 nM at FAAH [2], 100 to 1000 nM at MAGL [3] and 1000 to 10000 nM at ABHD6 [6].
Consider `CN1CCN(c2c(Cl)cccc2CN2CC3CN(C(=O)OC(C(F)(F)F)C(F)(F)F)CC3C2)CC1` (stereo not drawn) [Example 171, 1,1,1,3,3,3-hexafluoropropan-2-yl 5-[[3-chloro-2-(4-methylpiperazin-1-yl)phenyl]methyl]-octahydropyrrolo[3,4-c]pyrrole-2-carboxylate], for which the inhibition at 1 µM was above 75% at MAGL [1], below 25% at FAAH [4] and below 25% on ABHD6 [5]. Further, the results for the half-inhibitory concentration (IC50) at FAAH [2], on MAGL [3] and on ABHD6 [6] were above 10000 nM, 100 to 1000 nM and 1000 to 10000 nM, respectively.

These data come from patent publication US9828379B2 (priority 2013, dated 2017).
